Results as given in patent US20230303570A1, “KINASE INHIBITORS AND USES THEREOF” (ABM Therapeutics Corporation, priority 2020, published 2023).
Where two headings read alike, the source gives them in different places.

Experiments:
SRC = target: T1, SRC (Homo sapiens, UniProt P12931); assay: In vitro kinase assay, SRC (Caliper EZ Reader conversion); format: biochemical
T1 construct: purchased Carna Biosciences
Description: (§1) The effect of the compounds on the activity of SRC and PAK1 kinase were assessed. SRC and PAK1 kinase enzymes were obtained from Carna Biosciences.
Test compounds were dissolved in 100% DMSO to prepare a 20 mM stock. Compounds were stored in −20° C. and protected from light. […] Saracatinib was used as a positive control for the SRC assay, and FRAX597 was used as a positive control for the PAK1 assay. For the positive controls, a 3-fold serial dilution was made to achieve a total of 10 concentrations. 10 μL 1× Kinase buffer was used as the negative control.
First, 250 nL of the compounds at each dilution were transferred into wells of a 384-well plate. […] Then, 10 μL of enzyme mix was added to the 384-well plate, and the enzymes and compounds were pre-incubated at room temperature for 10 minutes. […] Then, 15 μL of substrate mix was added to a 384-well plate and reacted at room temperature for 30 min and 60 min. The reaction was stopped by adding 30 μL of the stop buffer, and the conversion rate was read using a Caliper EZ Reader.
(§2) Percent inhibition is calculated according to the following equation: […]
(§3) wherein “Conversion %_sample” is the conversion percentage value of the sample; “Conversion %_min” is the average conversion percentage value of the negative control; and “Conversion %_max” is the average conversion percentage value of the positive control.
(§4) The dose-response curve was fitted using GraphPad Prism software (version 5, […]), and the IC50 values for each compounds were calculated by log(inhibitor) vs. response using a variable slope program with the following formula:
(§5) Y=Bottom+(Top-Bottom)/(1+10^((Log IC50−X)*HillSlope))

PAK1 = PAK1 (Homo sapiens, UniProt Q13153); assay: In vitro kinase assay, PAK1 (Caliper EZ Reader conversion); format: biochemical; set-up: purchased Carna Biosciences
Description: as §1
Test compounds were dissolved in 100% DMSO to prepare a 20 mM stock. Compounds were stored in −20° C. and protected from light. A 100×solution of the compounds were prepared, from which 4-fold serial dilutions was made to achieve a total of 6 concentrations. Saracatinib was used as a positive control for the SRC assay, and FRAX597 was used as a positive control for the PAK1 assay. For the positive controls, a 3-fold serial dilution was made to achieve a total of 10 concentrations. 10 μL 1× Kinase buffer was used as the negative control.
First, 250 nL of the compounds at each dilution were transferred into wells of a 384-well plate. The PAK1 and SRC kinases were diluted to a 2.5×final concentration with 1×Kinase buffer. Then, 10 μL of enzyme mix was added to the 384-well plate, and the enzymes and compounds were pre-incubated at room temperature for 10 minutes. […] Then, 15 μL of substrate mix was added to a 384-well plate and reacted at room temperature for 30 min and 60 min. The reaction was stopped by adding 30 μL of the stop buffer, and the conversion rate was read using a Caliper EZ Reader.
as §2, §3, §4, §5

Sequence of PAK1 (Q13153 whole entry): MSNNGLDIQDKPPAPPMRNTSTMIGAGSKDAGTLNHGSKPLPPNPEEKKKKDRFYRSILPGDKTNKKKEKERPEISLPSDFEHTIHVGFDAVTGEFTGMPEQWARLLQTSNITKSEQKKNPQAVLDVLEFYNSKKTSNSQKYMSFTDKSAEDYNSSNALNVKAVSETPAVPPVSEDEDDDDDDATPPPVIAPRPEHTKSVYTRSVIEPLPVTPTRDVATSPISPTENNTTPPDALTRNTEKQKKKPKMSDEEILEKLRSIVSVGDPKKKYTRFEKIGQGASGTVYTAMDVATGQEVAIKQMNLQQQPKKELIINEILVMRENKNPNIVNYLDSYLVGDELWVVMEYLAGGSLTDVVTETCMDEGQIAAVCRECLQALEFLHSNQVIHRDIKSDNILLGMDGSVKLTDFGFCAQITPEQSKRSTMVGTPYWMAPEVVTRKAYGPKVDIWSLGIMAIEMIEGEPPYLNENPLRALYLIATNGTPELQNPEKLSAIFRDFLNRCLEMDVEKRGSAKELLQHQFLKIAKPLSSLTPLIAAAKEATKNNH
T1 sequence (P12931 whole entry): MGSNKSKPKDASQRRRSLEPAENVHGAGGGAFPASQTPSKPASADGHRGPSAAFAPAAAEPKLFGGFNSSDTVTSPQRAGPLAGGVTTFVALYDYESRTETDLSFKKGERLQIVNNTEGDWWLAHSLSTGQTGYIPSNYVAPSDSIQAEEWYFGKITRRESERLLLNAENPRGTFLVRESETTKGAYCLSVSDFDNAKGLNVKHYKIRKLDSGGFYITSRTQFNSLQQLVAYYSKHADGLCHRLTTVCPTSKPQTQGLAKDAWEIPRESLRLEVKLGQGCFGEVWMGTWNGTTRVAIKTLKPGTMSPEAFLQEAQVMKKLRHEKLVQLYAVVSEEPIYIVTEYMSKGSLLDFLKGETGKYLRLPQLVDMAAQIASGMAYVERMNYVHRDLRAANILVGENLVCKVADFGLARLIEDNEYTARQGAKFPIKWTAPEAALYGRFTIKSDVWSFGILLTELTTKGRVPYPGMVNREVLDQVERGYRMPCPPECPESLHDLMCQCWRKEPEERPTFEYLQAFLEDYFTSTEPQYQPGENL

Structure (SMILES)	IC50 (SRC; read-out: SRC IC50)	IC50 (PAK1)	IC50 (SRC)
OCc1cccc(Nc2ncc3c(n2)N2CCN=C2C(c2ccccc2Cl)=C3)c1 [Compound 13, (3-((6-(2-chlorophenyl)-8,9-dihydroimidazo[1′,2′:1,6]pyrido[2,3-d]pyrimidin-2-yl)amino)phenyl)methanol]	< 0.1 µM	0.1 to 10 µM	
CNc1ncc2c(n1)N1CCN=C1C(c1ccc(-c3cncc(C)n3)cc1Cl)=C2 [Compound 25, 6-(2-chloro-4-(6-methylpyrazin-2-yl)phenyl)-N-methyl-8,9-dihydroimidazo[1′,2′:1,6]pyrido[2,3-d]pyrimidin-2-amine]	> 10 µM	0.1 to 10 µM	
Fc1ccccc1Nc1ncc2c(n1)N1CCCN=C1C(c1cccc3[nH]ncc13)=C2 [Compound 58, N-(2-fluorophenyl)-6-(1H-indazol-4-yl)-9,10-dihydro-8H-pyrido[1,6-a:2,3-d′]dipyrimidin-2-amine]	0.1 to 10 µM	> 10 µM	
Cc1ccc(NC(=O)c2cccc(C(F)(F)F)c2)cc1C1=Cc2cnc(N)nc2N2CCCN=C12 [Compound 75, N-(3-(2-amino-9,10-dihydro-8H-pyrido[1,6-a:2,3-d′]dipyrimidin-6-yl)-4-methylphenyl)-3-(trifluoromethyl)benzamide]	< 0.1 µM	> 10 µM	
CSc1cccc(Nc2ncc3c(n2)N2CCN=C2C(c2ccccc2Cl)=C3)c1 [Compound 18, 6-(2-chlorophenyl)-N-(3-(methylthio)phenyl)-8,9-dihydroimidazo[1′,2′:1,6]pyrido[2,3-d]pyrimidin-2-amine]	< 0.1 µM	> 10 µM	
Fc1cc(N2CCNCC2)ccc1Nc1ncc2c(n1)N1CCN=C1C(c1ccc(Cl)cc1Cl)=C2 [Compound 7, 6-(2,4-dichlorophenyl)-N-(2-fluoro-4-(piperazin-1-yl)phenyl)-8,9-dihydroimidazo[1′,2′:1,6]pyrido[2,3-d]pyrimidin-2-amine]		> 10 µM	< 0.1 µM
C1=C(c2ccccc2)C2=NCCN2c2nc(Nc3ccncc3)ncc21 [Compound 43, 6-phenyl-N-(pyridin-4-yl)-8,9-dihydroimidazo[1′,2′:1,6]pyrido[2,3-d]pyrimidin-2-amine]	0.1 to 10 µM	> 10 µM	
COc1ccccc1C1=Cc2cnc(Nc3ccc(N4CCNCC4)cc3F)nc2N2CCN=C12 [Compound 31, N-(2-fluoro-4-(piperazin-1-yl)phenyl)-6-(2-methoxyphenyl)-8,9-dihydroimidazo[1′,2′:1,6]pyrido[2,3-d]pyrimidin-2-amine]	0.1 to 10 µM	> 10 µM	
Fc1cc(N2CCNCC2)ccc1Nc1ncc2c(n1)N1CCCN=C1C(c1ccc(Cl)cc1Cl)=C2 [Compound 68, 6-(2,4-dichlorophenyl)-N-(2-fluoro-4-(piperazin-1-yl)phenyl)-9,10-dihydro-8H-pyrido[1,6-a:2,3-d′]dipyrimidin-2-amine]	0.1 to 10 µM	> 10 µM	
Fc1ccccc1Nc1ncc2c(n1)N1CCN=C1C(c1ccc(Cl)cc1Cl)=C2 [Compound 6, 6-(2,4-dichlorophenyl)-N-(2-fluorophenyl)-8,9-dihydroimidazo[1′,2′:1,6]pyrido[2,3-d]pyrimidin-2-amine]	0.1 to 10 µM	> 10 µM	
CN1CCN(CCNc2ncc3c(n2)N2CCN=C2C(c2c(Cl)cccc2Cl)=C3)CC1 [Compound 48, 6-(2,6-dichlorophenyl)-N-(2-(4-methylpiperazin-1-yl)ethyl)-8,9-dihydroimidazo[1′,2′:1,6]pyrido[2,3-d]pyrimidin-2-amine]	0.1 to 10 µM	> 10 µM	
Fc1ccccc1Nc1ncc2c(n1)N1CCCN=C1C(c1cccc3[nH]ccc13)=C2 [Compound 57, N-(2-fluorophenyl)-6-(1H-indol-4-yl)-9,10-dihydro-8H-pyrido[1,6-a:2,3-d′]dipyrimidin-2-amine]	> 10 µM	> 10 µM	
C1=C(c2ccncc2)C2=NCCN2c2nc(Nc3ccncc3)ncc21 [Compound 45, N,6-di(pyridin-4-yl)-8,9-dihydroimidazo[1′,2′:1,6]pyrido[2,3-d]pyrimidin-2-amine]	> 10 µM	> 10 µM	
CNc1ncc2c(n1)N1CCCN=C1C(c1ccc(-n3ccnc(C)c3=O)cc1)=C2 [Compound 64, 3-methyl-1-(4-(2-(methylamino)-9,10-dihydro-8H-pyrido[1,6-a:2,3-d′]dipyrimidin-6-yl)phenyl)pyrazin-2(1H)-one]	> 10 µM	> 10 µM	
CNc1ncc2c(n1)N1CCN=C1C(c1ccc(N3CCN(C)C3=O)cc1Cl)=C2 [Compound 23, 1-(3-chloro-4-(2-(methylamino)-8,9-dihydroimidazo[1′,2′:1,6]pyrido[2,3-d]pyrimidin-6-yl)phenyl)-3-methylimidazolidin-2-one]	> 10 µM	0.1 to 10 µM	
Clc1ccccc1C1=Cc2cnc(Nc3cccnc3)nc2N2CCN=C12 [Compound 15, 6-(2-chlorophenyl)-N-(pyridin-3-yl)-8,9-dihydroimidazo[1′,2′:1,6]pyrido[2,3-d]pyrimidin-2-amine]	0.1 to 10 µM	> 10 µM	
Cc1ccc(Nc2ncc3c(n2)N2CCN=C2C(c2ccccc2Cl)=C3)cc1F [Compound 20, 6-(2-chlorophenyl)-N-(3-fluoro-4-methylphenyl)-8,9-dihydroimidazo[1′,2′:1,6]pyrido[2,3-d]pyrimidin-2-amine]	< 0.1 µM	> 10 µM	
Fc1cc(Nc2ncc3c(n2)N2CCN=C2C(c2ccc(Cl)cc2Cl)=C3)ccc1N1CCNCC1 [Compound 1, 6-(2,4-dichlorophenyl)-N-(3-fluoro-4-(piperazin-1-yl)phenyl)-8,9-dihydroimidazo[1′,2′:1,6]pyrido[2,3-d]pyrimidin-2-amine]	< 0.1 µM	< 0.1 µM	
COc1nc(N2CCNCC2)ccc1Nc1ncc2c(n1)N1CCCN=C1C(c1ccc(Cl)cc1Cl)=C2 [Compound 70, 6-(2,4-dichlorophenyl)-N-(2-methoxy-6-(piperazin-1-yl)pyridin-3-yl)-9,10-dihydro-8H-pyrido[1,6-a:2,3-d′]dipyrimidin-2-amine]	0.1 to 10 µM	> 10 µM	
Fc1cc(Nc2ncc3c(n2)N2CCCN=C2C(c2ccc(Cl)cc2Cl)=C3)ccc1N1CCNCC1 [Compound 69, 6-(2,4-dichlorophenyl)-N-(3-fluoro-4-(piperazin-1-yl)phenyl)-9,10-dihydro-8H-pyrido[1,6-a:2,3-d′]dipyrimidin-2-amine]	< 0.1 µM	0.1 to 10 µM	
Fc1cc(N2CCNCC2)ccc1Nc1ncc2c(n1)N1CCN=C1C(c1ccccc1Cl)=C2 [Compound 12, 6-(2-chlorophenyl)-N-(2-fluoro-4-(piperazin-1-yl)phenyl)-8,9-dihydroimidazo[1′,2′:1,6]pyrido[2,3-d]pyrimidin-2-amine]	< 0.1 µM	0.1 to 10 µM	
CNc1ncc2c(n1)N1CCCN=C1C(c1ccc(N3CCN(C)C3=O)cc1Cl)=C2 [Compound 71, 1-(3-chloro-4-(2-(methylamino)-9,10-dihydro-8H-pyrido[1,6-a:2,3-d′]dipyrimidin-6-yl)phenyl)-3-methylimidazolidin-2-one]	> 10 µM	> 10 µM	
CCN1CCN(c2ccc(Nc3ncc4c(n3)N3CCN=C3C(c3ccc(Cl)cc3Cl)=C4)cc2F)CC1 [Compound 3, 6-(2,4-dichlorophenyl)-N-(4-(4-ethylpiperazin-1-yl)-3-fluorophenyl)-8,9-dihydroimidazo[1′,2′:1,6]pyrido[2,3-d]pyrimidin-2-amine]	< 0.1 µM	0.1 to 10 µM	
CCNc1ncc2c(n1)N1CCN=C1C(c1ccc(Cl)cc1Cl)=C2 [Compound 4, 6-(2,4-dichlorophenyl)-N-ethyl-8,9-dihydroimidazo[1′,2′:1,6]pyrido[2,3-d]pyrimidin-2-amine]	> 10 µM	> 10 µM	
Clc1ccccc1C1=Cc2cnc(Nc3ccncc3)nc2N2CCN=C12 [Compound 16, 6-(2-chlorophenyl)-N-(pyridin-4-yl)-8,9-dihydroimidazo[1′,2′:1,6]pyrido[2,3-d]pyrimidin-2-amine]	0.1 to 10 µM	> 10 µM	
Fc1cc(N2CCNCC2)ccc1Nc1ncc2c(n1)N1CCN=C1C(c1ccccn1)=C2 [Compound 32, N-(2-fluoro-4-(piperazin-1-yl)phenyl)-6-(pyridin-2-yl)-8,9-dihydroimidazo[1′,2′:1,6]pyrido[2,3-d]pyrimidin-2-amine]		> 10 µM	
